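A five-concentration, 48-hour dose response in 96-well plates underlies each endpoint, interpolated linearly between surrounding concentrations. TGI denotes the concentration required for complete inhibition of growth.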
Key:
Assay in all cases: NCI anticancer screen, dose series, 48 h
[1] = tested on: HCC-2998 colon
[2] = tested on: NCI-H23 lung
[3] = tested on: UACC-257 melanoma
[4] = tested on: HOP-92 NSCLC
[5] = tested on: UO-31 renal
[6] = tested on: 786-0 renal
[7] = tested on: COLO 205 colon
[8] = tested on: SF-539 CNS
[9] = tested on: HT29 colon
[10] = tested on: OVCAR-4 ovarian

SMILES	TGI [1]	TGI [2]	TGI [3]	TGI [4]	TGI [5]	TGI [6]	TGI [7]	TGI [8]	TGI [9]	TGI [10]
CSc1ccn(C2CC(F)C(CO)O2)c(=O)n1 (stereo not given)	> 100 µM	> 100 µM	> 100 µM	> 100 µM	> 100 µM	> 100 µM	> 100 µM	> 100 µM	> 100 µM	> 100 µM
Cc1nc(C)c(N2CCNCC2)c(=O)[nH]1	> 100 µM	> 100 µM	> 100 µM	> 100 µM	> 100 µM	> 100 µM	> 100 µM	> 100 µM	> 100 µM	> 100 µM
O=C(NC(=O)c1cc(-c2ccccc2)n[nH]1)c1ccccc1	> 100 µM	> 100 µM	> 100 µM	> 100 µM	> 100 µM	> 100 µM	> 100 µM	> 100 µM	> 100 µM	> 100 µM
CC(=O)Oc1c(-c2ccccc2)sc2ccccc12	32 µM	38.7 µM	37 µM	49.8 µM	36.6 µM	28.9 µM	30.2 µM	46.8 µM	35.3 µM	73.4 µM
Cc1cc(S(=O)(=O)Nc2nnc3cnc4ccccc4n23)c(S)cc1Cl	> 100 µM	> 100 µM	> 100 µM	> 85.9 µM	> 100 µM	> 100 µM	> 100 µM	> 100 µM	> 100 µM	> 100 µM
COC1=CC(=O)CC(C)C12Oc1c(Cl)c(OC)cc(OC)c1C2=O (stereo not given)	> 100 µM	> 100 µM	> 100 µM	98.3 µM	> 88.1 µM	> 100 µM	64 µM	42.1 µM	> 100 µM	> 100 µM
COC1=CC2(CC(OC)=C1OC)OC21COc2ccccc2C1=O (stereo not given)	> 100 µM	> 100 µM	> 100 µM	> 100 µM	> 100 µM	> 100 µM	> 100 µM	> 100 µM	> 100 µM	> 100 µM
COc1ccccc1NC(=O)CC(=O)N1N=C(N2c3ccccc3Sc3ccccc32)CC1c1ccccc1 (stereo not given)	> 100 µM	> 100 µM	> 100 µM	> 100 µM	> 100 µM	> 100 µM	> 100 µM	> 100 µM	> 100 µM	> 100 µM
Nc1nc(Cl)cc(NC2(CO)CCC2)n1	> 100 µM	> 100 µM	> 100 µM	> 100 µM	> 100 µM	> 100 µM	> 100 µM	> 100 µM	> 100 µM	> 100 µM
COc1cc(OC)c2c3c(OC)cc(OC)c4c(=O)c(O)c(C[C@@H](C)O)c(c5c(C[C@@H](C)O)c(O)c(=O)c1c25)c43	32 µM	40 µM	> 100 µM	35.4 µM	> 100 µM	44.8 µM	16.7 µM	93.5 µM	73 µM	> 100 µM
O=C(c1ccccc1)C1S(=O)(=O)OCCOS1(=O)=O	> 100 µM	> 100 µM	> 100 µM	> 100 µM	> 100 µM	> 100 µM	> 100 µM	> 100 µM	> 100 µM	> 100 µM
C/C=C1\CN(C(=O)OC(C)(C)C)C1C(=O)OC(C)(C)C (stereo not given)	> 100 µM	> 100 µM	> 100 µM	> 100 µM	> 100 µM	> 100 µM	> 100 µM	> 100 µM	> 100 µM	> 100 µM
CCOC(=O)Nc1ccc2c(c1)c(CCCCCCc1nc3ccccc3c3ccc(NC(=O)OCC)cc13)nc1ccccc12	> 100 µM	> 100 µM	> 100 µM	63 µM	> 100 µM	42.4 µM	> 100 µM	25 µM	> 100 µM	74.2 µM
Cc1cc(=O)n2nc(CCl)sc2n1	31.1 µM	47.1 µM	25.2 µM	28.2 µM	28.8 µM	37 µM	33.5 µM	34.1 µM	30.5 µM	32.4 µM
c1csc(-c2ccsc2-c2cccs2)c1	> 100 µM	49.7 µM	> 100 µM	> 100 µM	> 100 µM	> 100 µM	> 100 µM	> 100 µM	> 100 µM	> 100 µM
CC(=O)NC(C)(C)C1CCC(C)=C(c2ccccc2)C1 (stereo not given)	> 100 µM	> 100 µM	> 100 µM	68.4 µM	> 100 µM	> 100 µM	> 100 µM	> 100 µM	> 100 µM	> 100 µM

SMILES	TGI [1]	TGI [2]	TGI [3]	TGI [4]	TGI [5]	TGI [6]	TGI [7]	TGI [8]	TGI [9]	TGI [10]
CC(C)=CCC/C(C)=C/COc1c2ccoc2cc2oc(=O)ccc12	79.7 µM	> 100 µM	90.4 µM	> 100 µM	59.7 µM	> 100 µM	32.4 µM	> 100 µM	81.1 µM	> 100 µM
CCCCCCCCCCCC[C@@H](O)[C@H]1CCC([C@H](O)CCCCC(=O)CCCCCCCC2=C[C@H](C)OC2=O)O1 (stereo not given in full)	> 50 µM	> 50 µM	> 50 µM	> 50 µM	> 50 µM	> 50 µM	> 30 µM	> 50 µM	> 50 µM	> 50 µM
COCN1COCN=C1NC#N	> 100 µM	> 100 µM	> 100 µM	> 100 µM	> 100 µM	> 100 µM	> 100 µM	> 100 µM	> 100 µM	> 100 µM
NC1=NS(=O)(=O)Nc2nc(-c3ccccc3)[nH]c21	> 100 µM	> 100 µM	> 100 µM	> 100 µM	> 100 µM	> 100 µM	> 100 µM	> 100 µM	> 100 µM	> 100 µM
O=C1CC[C@@]2(O)[C@H]3Cc4ccc(-c5ccccc5)c5c4[C@@]2(CCN3CC2CC2)[C@H]1O5	33.8 µM	78.9 µM	31.3 µM	57.4 µM	32.2 µM	30.3 µM	35 µM	33.5 µM	27.8 µM	> 100 µM
COC(=O)c1c(O)ccc2[nH]c3c(O)c4ccccc4cc3c12	32.8 µM	64.3 µM	94.5 µM	61.8 µM	84.9 µM	95.6 µM	37.3 µM	60.3 µM	> 100 µM	78.4 µM
COc1ccc(N=NC(=O)NC(CC(C)C)C(N)=O)cc1 (stereo not given)	> 31.6 µM	> 100 µM	> 31.6 µM	> 31.6 µM	> 65.4 µM	> 31.6 µM	24.9 µM	> 31.6 µM	> 100 µM	> 31.6 µM
CCOC(=O)C(NC(=O)c1ccccc1)(N1CCN(c2cc3c(cc2F)c(=O)c(C(=O)O)cn3CC)CC1)C(F)(F)F (stereo not given)	> 100 µM	> 100 µM	44.7 µM	84.4 µM	98.1 µM	> 100 µM	31.1 µM	82.9 µM	> 100 µM	> 100 µM
NC1=Nc2cc(Cl)ccc2Sc2nc3ccccc3n21	> 100 µM	> 100 µM	> 100 µM	71 µM	> 100 µM	> 100 µM	> 100 µM	> 100 µM	> 100 µM	> 100 µM
CC(=O)Oc1c(N2CCCCC2)c(C(=O)c2ccccc2)c(O)c2ccn(N(C)C)c12	37.2 µM	38.5 µM	31.2 µM	88.6 µM	35.4 µM	33.8 µM	33.3 µM	35.9 µM	29.3 µM	58.2 µM
S=c1[nH]n2c(CCCCCCCCc3nnc4sc(=S)[nH]n34)nnc2s1	> 100 µM	> 100 µM	> 100 µM	> 100 µM	> 100 µM	> 100 µM	> 100 µM	> 100 µM	> 100 µM	> 100 µM
O=C(CC1OC(O)C(Cl)=C1Cl)c1cccnc1 (stereo not given)	> 100 µM	> 100 µM	> 100 µM	> 100 µM	> 100 µM	> 60.1 µM	> 100 µM	1.41 µM	> 59.7 µM	> 100 µM
CC(=O)Oc1ccc2c(c1)CC[C@@H]1C2[C@@H](O[N+](=O)[O-])C[C@@]2(C)C1CC[C@@H]2O[N+](=O)[O-] (stereo not given in full)	25.9 µM	29.2 µM	25.9 µM	23.5 µM	26.1 µM	28.4 µM	34.2 µM	35.9 µM	30.2 µM	33.3 µM
COC(=O)c1ccc(C)cc1CC1Cc2ccc(C)cc2C1=O (stereo not given)	32.3 µM	74.7 µM	53.6 µM	61.4 µM	64 µM	48.5 µM	26.1 µM	19.5 µM	11.1 µM	89.5 µM
COc1cc2c3c(n(C)c(=O)c2cc1OC)-c1cc2c(cc1/C3=C\CCCI)OCO2	> 100 µM	> 100 µM	> 100 µM	> 100 µM	> 100 µM	> 100 µM	> 100 µM	> 95.3 µM	> 100 µM	> 100 µM
CCOC(=O)NC(OC)(C(F)(F)F)C(F)(F)F	> 100 µM	> 100 µM	> 100 µM	> 100 µM	> 100 µM	> 100 µM	> 100 µM	> 100 µM	> 100 µM	> 100 µM

Source: PubChem BioAssay (NCI)
